This note sets out measurements from patent publication US10471111B2, “Lactobacillus and composition for preventing, improving, or treating degenerative brain diseases or cognitive function disorders” (University-Industry Cooperation Group of Kyung Hee …, priority 2015, dated 2019).

Common to all, as to type: in vivo, ICR male mice
Assay [1] deals with mice induced to have memory impairment by scopolamine. Kind of assay: Passive Avoidance test, memory impairment by scopolamine. The following applies: scopolamine 1 mg/kg; lactic acid bacteria 1×10^9 CFU or donepezil 5 mg/kg daily for three days; measured up to 300 seconds. From the text:
In the Passive Avoidance test apparatus, which is divided into the first and second space, there is a guillotine-like door that connects the two spaces. By using lightings, the first space was kept bright while the second space was kept dark. On the floor of the second space that was kept dark was placed an electric grid that flowed 0.5 mA of electric shock for three seconds in the case of the animal moving to the dark space.
(§1) The selected 13 types of lactic acid bacteria were each suspended in physiological saline at the concentration of 1×10^10 CFU/ ? , and then the suspension was administered to mice of the test animal (5-week-old ICR male mice from Raonbio), at the dosage of 0.1 ? (equivalent to 1×10^9 CFU of lactic acid bacteria) on a daily basis for three days. […]
On the third day after administering the drug, an hour after administering lactic acid bacteria or positive control drug, 1 mg/kg (body weight) of scopolamine (cholinergic blocking drug inducing cognitive ability disorder or memory damage), dissolved in distilled water, was administered in the abdomen while the normal group was administered with physiological saline in the abdomen. […] With 10 seconds of observation, the guillotine-like door is opened, the time that the mice in each experimental group took to have all of their four feet inside the second space was measured up to 300 seconds, whose result is shown in Table 8. […]

The test system is the same in assay [2]. Kind of assay: Y-maze test, memory impairment by scopolamine. The procedure: Apparatus used in the Y-maze test consists of three arms with each being 42 cm in length, 3 cm in width and 12 cm in height. The three arms, made from black polyvinyl resin, were placed at an angle of 120 degrees.
as §1
An hour after the final administration of lactic acid bacteria or positive control drug, 1 mg/kg (body weight) of scopolamine (cholinergic blocking drug inducing cognitive ability disorder or memory impairment), dissolved in distilled water, was administered in the abdomen while the normal group was administered with physiological saline in the abdomen. half an hour after the administration of scopolamine, the mouse was carefully placed in one of the three arms, A, B, and C, in the Y-maze and allowed to freely move for eight minutes, and then the arm in which the mouse moved was recorded. In the experiment, the arm was recorded as a case in which the test animal moved only when the entire body including the tail was inside the arm, or when the mouse moved back in. […]

Assay [3] concerns mice induced to have memory impairment by Proteus mirabilis K21. Kind of assay: Y-maze test, memory impairment by Proteus mirabilis K21. Particulars: Proteus mirabilis K21 1×10^9 CFU for five days, then lactic acid bacteria 1×10^9 CFU or donepezil 5 mg/kg daily for five days. How it is done: Proteus mirabilis K21 separated from the animal with damaged memory was administered to the mice to induce memory impairment (similar symptoms to […]), and Y-maze test was conducted to measure the improvement effect of lactic acid bacteria for cognitive ability.
In more detail, Proteus mirabilis K21 was administered to a mouse (5-week-old ICR male mice from Raonbio) that was fed for a week in the animal laboratory at the dosage of 1×10^9 CFU on a daily basis for five days to induce memory impairment. In the meantime, the normal group was administered with physiological saline instead of Proteus mirabilis K21. […]
An hour after the final administration of drug, the mouse was carefully placed in one of the three arms, A, B, and C, in the Y-maze and allowed to freely move for eight minutes, and then the arm in which the mouse moved was recorded. In the experiment, the arm was recorded as an arm in which the test animal moved only when the entire body including the tail was inside the arm, or when the mouse moved back in. […] The experimental result was calculated by the formula below (Sarter, M. et al., Psychopharmacology., 94, pp 491-495, 1998), as shown in Table 12 below. […]

In assay [1], `COc1cc2c(cc1OC)C(=O)C(CC1CCN(Cc3ccccc3)CC1)C2` (stereo not shown) [donepezil] returned a Latency time of 66.4 s. For the same compound, the Alternation behavior is 63.2% in assay [2] (Y-maze test, Table 11, scopolamine, red bean suspension or ferment 0.2 g per mouse, CJLJ103 2 × 10^8 CFU per mouse daily); 65.8% in assay [2] (scopolamine 1 mg/kg, lactic acid bacteria 1×10^9 CFU or donepezil 5 mg/kg daily for three days); 58.6% in assay [3].
